# PMC3102069, “Charge Isomers of Myelin Basic Protein: Structure and Interactions with Membranes, Nucleotide Analogues, and Calmodulin” (PLoS ONE, 2011)
# Molecular target: T1, rmC1 (recombinant murine 18.5-kDa myelin basic protein, C1 charge component); rmC8 is its six-fold Gln variant (Mus musculus, UniProt P04370)
# T1 construct: gene Mbp
# Assay: fluorescence, FRET from Trp to mant (ex […] nm, em […] nm)
# Assay type: binding
# Details: 0.25 µM rmC1, 0.5-12.5 µM nucleotide, 10 mM HEPES pH 7.5; labelled compound
# T1 sequence (P04370 1-169 isoform P04370-5 limits assumed): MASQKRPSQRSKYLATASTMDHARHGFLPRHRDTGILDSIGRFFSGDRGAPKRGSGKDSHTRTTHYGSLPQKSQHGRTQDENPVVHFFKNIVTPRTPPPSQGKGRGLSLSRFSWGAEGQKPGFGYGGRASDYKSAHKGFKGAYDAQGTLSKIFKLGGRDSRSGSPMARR
compound,measurement,value
CNc1ccccc1C(=O)O[C@H]1[C@@H](O)[C@H](n2cnc3c(N)ncnc32)O[C@@H]1COP(=O)(O)OP(=O)(O)OP(=O)(O)O [mant-ATP],"fluorescence, FRET from Trp to mant (ex 280 nm, em 448 nm)","while both mant-ATP and mant-GTP bound to rmC1, mant-AMP did not"
